Test results: PMC8249445, “Complex effects of macrolide venturicidins on bacterial F-ATPases likely contribute to their action as antibiotic adjuvants” (Scientific Reports, 2021)

Target: T1, PaFOF1 in membranes from P. aeruginosa strain PAO1 (Pseudomonas aeruginosa, UniProt Q9HT15)
T1 construct: endogenous in cells; host or cells: P. aeruginosa strain PAO1, inverted membrane vesicles
Assay: ATP hydrolysis by P. aeruginosa PAO1 membranes, enzyme-coupled spectrophotometric assay
Assay type: biochemical
Details: 38.5 mM selenite
Method: P. aeruginosa strain PAO1 was grown in LB medium at 37 °C as described. For preparation of IMV, final cultures used 1 L of LB per 2L baffled flask and were inoculated from an overnight culture at an initial OD600 ~ 0.025. Cultures were shaken at 250 rpm and monitored until they reached mid- to late-logarithmic growth phase (OD600, 1–1.4). Cultures were chilled and subsequent steps for cell lysis and isolation of IMV were done at 4 °C. Cells were sedimented by centrifugation (3,700 × g, 30 min). Cells from 1 to 2 L of culture (~ 2–3 g wet cells/L) were resuspended in 25–40 ml of STEM buffer (TEM buffer plus sucrose[55]), transferred to a 50 ml Oak Ridge tube, sedimented again (11,617 × g, 10 min), resuspended in 20–40 ml of STEM and frozen at -80 °C. Thawed cells were lysed by two sequential passages through an SLM-Aminco French pressure cell at ~ 16,000 psi, essentially as described for E. coli[55]; the pressure cell was enclosed in a clear biohazard bag (MiniGrip, IP2024B3T) during use to contain any aerosols formed. Unlysed cells and cell wall debris were removed by centrifugation (50 ml Oak Ridge tubes, 16,743 × g, 25 min): the supernate was diluted with MTGM7.5 buffer (50 mM MOPS-TRIS, 10%(v/v) glycerol, 5 mM Mg(CH3COO)2, pH 7.5) and centrifugation was repeated at least twice, recovering the supernate each time. The final supernatant lysate was stored at -80 °C. To isolate IMV, the cleared lysate was thawed quickly and diluted with MTGM7.5 as needed to fill 1 or 2 polycarbonate tubes for use in a Beckman Ti70 rotor. The IMV (membranes) were sedimented by ultracentrifugation (250,000 × g max) for 1 h, the membranes were resuspended in MTGM7.5 buffer to fill one Ti70 tube and ultracentrifugation was repeated for 45 min. The membranes were resuspended in a small volume of MTGM7.5 buffer (typically ≥ 10 mg membrane protein/ml) and homogenized manually (Potter–Elvehjem type). Small aliquots of the final membrane sample were quick-frozen in liquid nitrogen and stored at − 80 °C.
ATP hydrolysis by membrane vesicles was assayed spectrophotometrically[57] at 30 °C using an open-chamber, diode array spectrophotometer (Hewlett Packard 8453 UV–Vis) as described in[29]. The assay medium (1 ml per assay) contained 20 mM Mops/Tris, pH 8.0, 0.2 mM EDTA, 10 mM CH3COOK, 1 mM ATP, 3.2 mM Mg(CH3COO)2, 1 mM phosphoenolpyruvate, at least 0.3 mM NADH, 0.1 mg/ml pyruvate kinase, 0.1 mg/ml lactate dehydrogenase, 5 mM KCN, and 5 μM carbonyl cyanide 4-(trifluoromethoxy)-phenylhydrazone. As noted before, the rate of ATP hydrolysis by membranes increases to a small degree during assays. This is due, at least in part, to dissociation of a small fraction of EcF1 and/or ε from the membranes, since the increase is inhibited by added ε (e.g., Fig. 5). To avoid interference of this increase with the changes of ATPase activity induced by venturicidins, unless indicated otherwise, measurement of ATPase activities were started 60 min after addition of membranes to the complete assay medium. This minimizes further increases in ATPase rate during control assays to < 15%. To keep absorbance between 1.5 and 2 units after the 60-min preincubation, up to 0.2 mM additional NADH was added to the assay medium. In figures displaying activity traces, some traces are shifted vertically for visual clarity.

Structure (SMILES): CCC(=O)C(C)C(O)C(C)CC(C)C1OC(=O)CC2(O)CC=C(C)C(O2)C(C)=CCCCC(OC2CC(OC(N)=O)C(O)C(C)O2)C=CC(C)CC1C (centres unmarked) [ventA, venturicidin A]
- Inhibition of early ATPase rate: up to 42%
- ATPase remaining at saturating ventA (best fit of early rates): 62% (± 2)
- ventA-sensitive ATPase (best fit of early rates): 42% (± 3)
- Late rate, recovery of activity as % of uninhibited rate (concentration-dependent): up to 140%
- Ki (read-out: Ki (inhibition of early rate)): 1200 nM
